Laboratory results reported in PubChem BioAssay (NCI).
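Dose response: 5 concentrations. Exposure: 48 h. Format: 96-well plates. Endpoint: linear interpolation; highest concentration if not reached. TGI denotes the concentration required for complete inhibition of growth.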

Assays:
Assay in all cases: inhibition of tumour cell growth, NCI panel, 48 h
786-0 renal = tested on: 786-0 renal
HCT-15 colon = tested on: HCT-15 colon
CCRF-CEM leukemia = tested on: CCRF-CEM leukemia
SNB-75 CNS = tested on: SNB-75 CNS
SK-MEL-2 melanoma = tested on: SK-MEL-2 melanoma
EKVX NSCLC = tested on: EKVX NSCLC
MDA-N = tested on: MDA-N
RPMI-8226 leukemia = tested on: RPMI-8226 leukemia
HCC-2998 colon = tested on: HCC-2998 colon
SW-620 colon = tested on: SW-620 colon
LOX IMVI melanoma = tested on: LOX IMVI melanoma
K-562 leukemia = tested on: K-562 leukemia
SNB-19 CNS = tested on: SNB-19 CNS
HOP-92 NSCLC = tested on: HOP-92 NSCLC
MDA-MB-231 breast = tested on: MDA-MB-231 breast
PC-3 prostate = tested on: PC-3 prostate
NCI-H522 lung = tested on: NCI-H522 lung
TK-10 renal = tested on: TK-10 renal
A498 renal = tested on: A498 renal
SF-268 CNS = tested on: SF-268 CNS
M14 melanoma = tested on: M14 melanoma
IGROV1 ovarian = tested on: IGROV1 ovarian
OVCAR-5 ovarian = tested on: OVCAR-5 ovarian
HS 578T breast = tested on: HS 578T breast
HT29 colon = tested on: HT29 colon
MALME-3M melanoma = tested on: MALME-3M melanoma
UACC-257 melanoma = tested on: UACC-257 melanoma
SK-OV-3 ovarian = tested on: SK-OV-3 ovarian
UO-31 renal = tested on: UO-31 renal
A549 NSCLC = tested on: A549 NSCLC
NCI-H226 lung = tested on: NCI-H226 lung
MDA-MB-435 = tested on: MDA-MB-435
COLO 205 colon = tested on: COLO 205 colon
OVCAR-4 ovarian = tested on: OVCAR-4 ovarian
HOP-62 NSCLC = tested on: HOP-62 NSCLC
KM12 colon = tested on: KM12 colon
T-47D breast = tested on: T-47D breast
SK-MEL-5 melanoma = tested on: SK-MEL-5 melanoma
RXF 393 renal = tested on: RXF 393 renal
SK-MEL-28 melanoma = tested on: SK-MEL-28 melanoma
SF-295 CNS = tested on: SF-295 CNS
NCI-H460 lung = tested on: NCI-H460 lung
MCF7 breast = tested on: MCF7 breast
U251 CNS = tested on: U251 CNS
SN12C renal = tested on: SN12C renal
UACC-62 melanoma = tested on: UACC-62 melanoma
SF-539 CNS = tested on: SF-539 CNS
HCT-116 colon = tested on: HCT-116 colon
OVCAR-8 ovarian = tested on: OVCAR-8 ovarian
BT-549 breast = tested on: BT-549 breast
MOLT-4 leukemia = tested on: MOLT-4 leukemia
ACHN renal = tested on: ACHN renal
NCI-H23 lung = tested on: NCI-H23 lung
OVCAR-3 ovarian = tested on: OVCAR-3 ovarian
NCI/ADR-RES ovarian = tested on: NCI/ADR-RES ovarian
DU-145 prostate = tested on: DU-145 prostate
HL-60(TB) leukemia = tested on: HL-60(TB) leukemia
CAKI-1 renal = tested on: CAKI-1 renal

Measured: TGI

CSc1nc(Cl)c2c(n1)Sc1nc3ccccc3n1C2O (stereo not drawn)
> 45 µM: OVCAR-5 ovarian
41.9 µM: DU-145 prostate
13.6 µM: HCC-2998 colon
24.6 µM: CCRF-CEM leukemia
> 21.2 µM: KM12 colon
24.3 µM: UO-31 renal
> 67.3 µM: MALME-3M melanoma
> 44.2 µM: MDA-MB-435
95 µM: NCI-H226 lung
> 84.4 µM: BT-549 breast
> 82.2 µM: SNB-75 CNS
55 µM: SF-268 CNS
> 26.5 µM: OVCAR-3 ovarian
3.9 µM: LOX IMVI melanoma
3.8 µM: SF-539 CNS
26.6 µM: HOP-92 NSCLC
20.8 µM: RXF 393 renal
> 68.8 µM: HS 578T breast
25.4 µM: HT29 colon
> 74.6 µM: NCI-H460 lung
> 33.1 µM: HCT-116 colon
> 79 µM: HOP-62 NSCLC
97.1 µM: SNB-19 CNS
> 40.2 µM: HCT-15 colon
> 29.5 µM: OVCAR-8 ovarian
7.28 µM: NCI-H522 lung
15.2 µM: U251 CNS
19.5 µM: RPMI-8226 leukemia
25.7 µM: SW-620 colon
> 96.4 µM: A549 NSCLC
18 µM: 786-0 renal
> 47.4 µM: SK-MEL-2 melanoma
> 21.6 µM: COLO 205 colon
> 24.4 µM: NCI/ADR-RES ovarian
not listed: HL-60(TB) leukemia | CAKI-1 renal
> 100 µM: all other assays above

CC/C=N\N1C(N)=C(C#N)C(C#N)(C#N)C1CC (stereo not drawn)
85.6 µM: HL-60(TB) leukemia
86.4 µM: HT29 colon
80.8 µM: SF-539 CNS
not listed: HOP-92 NSCLC | NCI-H460 lung
> 100 µM: all other assays above

CCOC(=O)c1c(-c2ccccc2)c(OC)cn1C
not listed: HOP-92 NSCLC | UO-31 renal
> 10 µM: all other assays above

Cc1cc(-c2ccccc2)nc2oc(=O)n(C)c12
not listed: SNB-75 CNS | RPMI-8226 leukemia | SF-539 CNS
> 100 µM: all other assays above
